Test results from PMC12250893, “Systematic Characterization of In Vitro and In Vivo Metabolic Pathways and Identification of Novel Biomarkers of 26 Synthetic Cannabinoids” (Molecules, 2025).
Entries after “also recorded” stand apart in the source; their conditions may differ. Like-named read-outs stand apart in the source and are kept apart here.

Legend:
[1] = Human liver microsomal incubation (in vitro metabolic model); conditions: for Conversion Rate: HLM, 37 °C 1 h, then UDPGA 30 min, peak area of parent in experimental group vs degradation control group; for most prevalent Phase II metabolic reaction / predominant Phase I metabolic reactions: human liver microsomal incubations
Method: Each of the 26 SCs was configured to 1 mg/mL with acetonitrile. The HLMs, NADPH regeneration solution A, regeneration solution B, and UDPGA solution were thawed at 4 °C. An icebox was prepared, and all additional steps were performed on ice. For this, 10 µL of NADPH regeneration solution A, 2 µL of regeneration solution B, 2 µL of SCs standard, and 10 µL of mixed human liver microsomes were added to 176 µL of 0.1 mol/L phosphate buffer. The mixture was mixed thoroughly and incubated at 37 °C for 1 h. Subsequently, 20 µL of UDPGA solution was added and mixed well, followed by an additional incubation for 30 min. The reaction was stopped by adding 200 µL of ice-cold acetonitrile. Additionally, the negative control group and the degradation control group were set up following the same procedure. […] The unadded components were supplemented with an equal amount of phosphate buffer. All samples were centrifuged at a high speed of 13,500 r for 10 min after reaction termination. The supernatant was collected and subsequently passed through a membrane filter (0.45 μm) prior to sampling.
The samples were separated and analyzed using a UHPLC-Q-Exactive Orbitrap MS system (Thermo Fisher Scientific, Waltham, MA, USA), which comprised a Thermo-Scientific™ Q-Exactive™(Thermo Fisher Scientific, Waltham, MA, USA) quadrupole electrostatic field orbitrap mass spectrometer coupled to a Vanquish ultrahigh-performance liquid chromatography (UHPLC) system (Thermo Fisher Scientific, Waltham, MA, USA) with a heated electrospray ionization HESI source in the positive ionization mode. The samples were separated on an ACQUITY UPLC BEH C18 Column (100 × 2.1 mm, 1.7 μm) with the column temperature maintained at 30 °C. The chromatographic separation was achieved using a gradient elution program with mobile phase A consisting of 0.1% formic acid in water and mobile phase B containing 0.1% formic acid in acetonitrile. The gradient profile was programmed as follows: Initial conditions were maintained at 5% B from 0 to 1 min, followed by a linear increase to 95% B from 1 to 11 min; the 95% B composition was held from 11 to 15.5 min, then decreased back to 5% B from 15.5 to 16 min, and finally maintained at 5% B from 16 to 18 min. The flow rate was set at 0.3 mL/min, and the injection volume was 10 μL for all analyses.
The following HESI source conditions were adopted: Acquisition mode was set to positive ion mode; the capillary temperature was maintained at 325 °C, the auxiliary gas heater temperature was set to 350 °C, and the spray voltage was applied at 3.7 kV. The mass spectrometry analysis was carried out in full-scan (FS) mode to trigger data-dependent acquisition in tandem mass spectrometry (FS-ddMS^2) mode. The FS data acquisition was performed using the following parameters: a resolution of 60,000, an automatic gain control (AGC) target of 1 × 10^6, a scan range of m/z 66.7–1000, and a maximum injection time (IT) of 250 ms. The ddMS^2 data acquisition was performed using the following parameters: a resolution of 30,000; an automatic gain control (AGC) target of 1 × 10^5; normalized collision energies (NCEs) of 20, 40, and 70 eV; and a maximum injection time (IT) of 50 ms.
Data acquisition was executed utilizing Xcalibur 4.3 software (Thermo Fisher Scientific, Waltham, MA, USA). The subsequent analysis of the acquired data was conducted using Thermo Fisher Scientific […] 3.2 software (Thermo Fisher Scientific, Waltham, MA, USA). The workflow’s nodes employed specific parameters: a mass tolerance of 5 ppm, a signal-to-noise threshold of 3, a minimum peak intensity of 1 × 10^5, a maximum peak width of 0.8 min, and a minimum of 3 scans per peak.

[2] = Rat metabolic model, metabolite identification; assay type: in vivo
Method: (§1) Sprague-Dawley male rats (200 ± 20 g) were obtained from SPF (Beijing) Biotechnology Co., Ltd. (Beijing, China). The animals were housed under controlled environmental conditions: Temperature was maintained at 20–25 °C, humidity at 50 ± 10%, and a 12/12 h light/dark cycle was applied. They had ad libitum access to standard laboratory chow and filtered water. A two-week acclimatization period was provided before the experiments began. The 26 SC standards were prepared in normal saline at concentrations of 0.5 mg/mL, 0.1 mg/mL, and 0.05 mg/mL. Each rat was weighed before administration, and the injection dose was adjusted based on body weight. The dosing volume for each rat was maintained at approximately 200 µL.
(§2) 162 Sprague-Dawley (SD) rats were randomly divided into 27 groups, with six rats in each group. The control group received an injection of normal saline, while the remaining groups were injected with 26 different types of SCs. The dosage administered was determined based on pre-experimental results, specifically selecting the dose that produced the highest level of metabolites in the blood samples collected 1 h after tail vein injection at concentrations of 0.5 mg/kg, 0.1 mg/kg, and 0.05 mg/kg, as shown in Table 6. Subsequently, tail vein administration was conducted at the specified dosage. The orbital venous blood was taken from the outer canthus of the rat with capillaries at 15 min and 1 h. Feces were collected after the blood. The rats were then sacrificed, and their brains and livers were dissected. Samples were immediately frozen in liquid nitrogen and stored at −80 °C until analysis.
(§3) For blood samples, 0.5 mL of each sample was mixed with 1.0 mL of acetonitrile. For brain samples, 0.2 g of tissue was combined with 0.5 mL of acetonitrile. For liver samples, 0.5 g of tissue was mixed with 0.5 mL of acetonitrile. For feces samples, 0.2 g of sample was combined with 1 mL of acetonitrile-water (3:1) for grinding and homogenization. Each mixture was sonicated for 40 min, allowed to precipitate at 4 °C for 30 min, and then centrifuged at 13,500 rpm for 10 min. The supernatant was filtered using a syringe filter (0.45 μm) for further testing.

[3] = Clinical symptoms of rats in metabolic model; assay type: in vivo, rat; conditions: SD rats, dose 0.05-0.5 mg/kg per Table 6
Method: as §1, §2

[4] = Metabolite identification, HLM incubation and rat model combined (UHPLC-Q-Exactive Orbitrap MS); parameters: species or system human; rat; conditions: for metabolite that was a common outcome in both models: HLM incubation and rat model; for Characteristic Metabolite: characteristic / defining metabolites by the screening criteria; for Number of Metabolites / Number of Phase I Metabolites / Number of Phase II Metabolites: in vitro (HLM) and in vivo (rat) models together
Method: as §1, §2, §3

[5] = pooled HLM and real urine samples; cited from earlier work
[6] = parameters: method as in PMID 32678962; conditions: in vitro and in vivo systems; cited from earlier work
[7] = following human liver microsomal incubation

| SMILES | Conversion Rate [1] [%] | Phase II metabolites detected [1, 7] | metabolites detected [1, 7] | most prevalent Phase II metabolic reaction [1] | predominant Phase I metabolic reactions [1] | key Phase I metabolic reactions [2] | most significant Phase II metabolic processes [2] | Phase II metabolites identified ([2]; tail vein injection) | metabolic pathways associated ([2]; tail vein injection) | metabolites identified ([2]; tail vein injection) | metabolite that was a common outcome in both models [4] | Characteristic Metabolite [4] | Number of Metabolites [4] | Number of Phase I Metabolites [4] | Number of Phase II Metabolites [4] | also measured |
| --- | --- | --- | --- | --- | --- | --- | --- | --- | --- | --- | --- | --- | --- | --- | --- | --- |
| CCOC(=O)C(NC(=O)c1nn(CCCCCF)c2ccccc12)C(C)C (stereo not shown) [5F-EMB-PINACA] | 100.0 | one | eleven | glucuronidation | ester hydrolysis and hydroxylation | oxidative defluorination and hydroxylation | sulfation and arginine binding reactions | 3 | eight | 13 | ester hydrolysis metabolite | ester hydrolysis, ester hydrolysis, hydroxylated, and oxidative defluorination metabolites; also recorded: Ester hydrolysis, oxidative defluorination, ester hydrolysis, and hydroxylated metabolites | 23 | 19 | 4 | Animal manifestations after tail vein drug injection [3]: irritable, with unstable gait and tachypnea; also recorded: hematuria |
| COC(=O)C(NC(=O)c1cn(CCCCCF)c2ccccc12)C(C)(C)C (stereo not shown) [5F-MDMB-PICA] | 95.9 | two | fourteen | glucuronidation | ester hydrolysis and hydroxylation | oxidative defluorination and hydroxylation | sulfation and glycoside binding reactions | five | seven | twelve | oxidative defluorination metabolite | ester hydrolysis, de-N-alkylation, and oxidative defluorination metabolites; also recorded: Ester hydrolysis, de-N-alkyl side chain, and oxidative defluorination metabolite | 25 | 18 | 7 | Phase I metabolites detected [1, 7]: twelve; metabolic pathways involved [1, 7]: eight; Phase I metabolites identified ([2]; tail vein injection): seven; most abundant stage I metabolites [5]: ester hydrolysis metabolites |
| CC(C)(NC(=O)c1cn(CCCCCF)c2ncccc12)c1ccccc1 [CUMYL-5F-P7ICA] | – | – | – | – | – | – | – | – | – | – | – | – | – | – | – | Phase II metabolites detected [6]: sulfated and glucuronidated; most common Phase I reactions [6]: oxidative defluorination, monohydroxylation, ketone formation, and carboxylation |
